From ChEMBL document CHEMBL1201862, “PubChem BioAssay data set” (2004)
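Dose response: 5 concentrations. Exposure: 48 h. Format: 96-well plates. Endpoint: linear interpolation; highest concentration if not reached. Abbreviation: GI50, concentration required for 50% inhibition of growth.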 Calls of active or inactive are those of the source. Cut-off read from the data, not from the text of the source: active = GI50 up to about 1.1 µM and inactive = higher.

Assays:
Test in all cases: DTP human tumour cell line panel, 48 h
[1] = test system: COLO 205
[2] = test system: HCC 2998
[3] = test system: NCI-H460
[4] = test system: CAKI-1
[5] = test system: DU-145
[6] = test system: SW-620
[7] = test system: MCF7
[8] = test system: SF-268
[9] = test system: HL-60
[10] = test system: PC-3
[11] = test system: HCT-15
[12] = test system: 786-0
[13] = test system: K562
[14] = test system: A549
[15] = test system: HOP-92
[16] = test system: NCI/ADR-RES
[17] = test system: SNB-19
[18] = test system: SR
[19] = test system: SNB-75

Compound | GI50 [1] | GI50 [2] | GI50 [3] | GI50 [4] | GI50 [5] | GI50 [6] | GI50 [7] | GI50 [8] | GI50 [9] | GI50 [10] | GI50 [11] | GI50 [12] | GI50 [13] | GI50 [14] | GI50 [15] | GI50 [16] | GI50 [17] | GI50 [18] | GI50 [19]
C#Cc1cc(-c2nc3ccccc3s2)ccc1N | 17.5 µM (inactive) | 10.3 µM (inactive) | 16.5 µM (inactive) | 20.5 µM (inactive) | 16.7 µM (inactive) | 34.6 µM (inactive) | < 0.01 µM (active) | 25.8 µM (inactive) | 24.7 µM (inactive) | 24.9 µM (inactive) | 17.5 µM | 34.4 µM (inactive) | 25.3 µM (inactive) | 16.3 µM (inactive) | 11 µM (inactive) | 27.7 µM (inactive) | 20 µM (inactive) | 25.1 µM (inactive) | 
O=C(O)CCNc1ccccc1C(=O)O | > 100 µM (inactive) |  | > 100 µM (inactive) | > 100 µM (inactive) | > 100 µM (inactive) | > 100 µM (inactive) | > 100 µM (inactive) | > 100 µM (inactive) | > 100 µM (inactive) | > 100 µM (inactive) | > 100 µM | > 100 µM (inactive) | > 100 µM (inactive) | > 100 µM (inactive) | > 100 µM (inactive) | > 100 µM (inactive) | > 100 µM (inactive) | > 100 µM (inactive) | > 100 µM (inactive)
CCOc1cc2c(cc1O)/C(=N\OC)C[C@@H]1[C@@H]2CC[C@]2(C)[C@@H](O)CC[C@@H]12 | 16.3 µM (inactive) | 1.25 µM (inactive) | 0.308 µM (active) |  | 0.326 µM (active) | 0.212 µM (active) | 0.0238 µM (active) | 0.625 µM (active) | 0.00548 µM (active) | 1.39 µM (inactive) | 0.0653 µM | < 0.0403 µM (active) | 0.0596 µM (active) | 0.542 µM (active) | 7.64 µM (inactive) | 0.0319 µM (active) | 2.11 µM (inactive) | 0.0127 µM (active) | 0.0219 µM (active)
CN(C(=O)C1(C(=O)C=[N+]=[N-])CC1)c1ccccc1 | > 100 µM (inactive) | > 100 µM (inactive) | > 100 µM (inactive) |  | > 100 µM (inactive) | > 100 µM (inactive) | > 100 µM (inactive) | > 100 µM (inactive) | > 100 µM (inactive) | > 100 µM (inactive) | > 100 µM | > 100 µM (inactive) | > 100 µM (inactive) | > 100 µM (inactive) |  | > 100 µM (inactive) | > 100 µM (inactive) | > 100 µM (inactive) | > 100 µM (inactive)
COC(=O)[C@H](Cc1ccccc1)NC(=O)c1ccc(CNC(=O)/C=C/c2cccc(Oc3ccccc3)c2)cc1 | 21.3 µM (inactive) | 35.4 µM (inactive) | 24.9 µM (inactive) | 16.5 µM (inactive) | 40.6 µM (inactive) | 9.98 µM (inactive) | 12.8 µM (inactive) | 14.6 µM (inactive) |  | 29.4 µM (inactive) | 6.24 µM | 17.3 µM (inactive) | 7.08 µM (inactive) | > 100 µM (inactive) | 5.31 µM (inactive) | 31.3 µM (inactive) | 28 µM (inactive) | 6.79 µM (inactive) | 34.8 µM (inactive)
O=C1N[C@H]2C(=O)c3c(Br)sc(Br)c3[C@H]2O1 | 3.52 µM (inactive) | 11.7 µM (inactive) | 16.8 µM (inactive) | 4.53 µM (inactive) | 13.2 µM (inactive) | 2.17 µM (inactive) | 10.7 µM (inactive) | 4.1 µM (inactive) |  | 4.95 µM (inactive) | 1.95 µM | 8.26 µM (inactive) | 2.66 µM (inactive) | 19.4 µM (inactive) | 14.6 µM (inactive) | 13.4 µM (inactive) | 15.9 µM (inactive) | 1.87 µM (inactive) | 16.5 µM (inactive)
Cc1nc(N)c(N2CCN(CN)CC2)c(O)n1 | > 100 µM (inactive) | > 100 µM (inactive) | > 100 µM (inactive) |  | > 100 µM (inactive) | > 100 µM (inactive) | > 100 µM (inactive) | > 100 µM (inactive) | > 100 µM (inactive) | > 100 µM (inactive) | > 100 µM | > 100 µM (inactive) | > 100 µM (inactive) | > 100 µM (inactive) |  | > 100 µM (inactive) | > 100 µM (inactive) | > 100 µM (inactive) | > 100 µM (inactive)
O=C(Cn1c(C(=O)/C=C/c2ccc(Cl)cc2)nc2ccccc21)c1ccc(Cl)cc1 | 16.5 µM (inactive) | 14.4 µM (inactive) | 10.9 µM (inactive) |  | 21.7 µM (inactive) | 11.4 µM (inactive) | 15.2 µM (inactive) | 23.3 µM (inactive) | 10.1 µM (inactive) | 22.5 µM (inactive) | 15.3 µM | 20.6 µM (inactive) | 6.07 µM (inactive) | 21 µM (inactive) | 34.3 µM (inactive) | 20.5 µM (inactive) | 20.7 µM (inactive) | 4.25 µM (inactive) | 
Cc1cc2ccc(OC(=O)c3ccc(NC(=N)N)cc3)cc2oc1=O | 23.7 µM (inactive) |  | 31.4 µM (inactive) | 43.5 µM (inactive) | 76.9 µM (inactive) | 24.7 µM (inactive) | 22.1 µM (inactive) | 25.2 µM (inactive) | 5.93 µM (inactive) | 28.6 µM (inactive) | > 100 µM | 25.1 µM (inactive) | 25.6 µM (inactive) | 36.2 µM (inactive) | 41.6 µM (inactive) | > 100 µM (inactive) | 22.2 µM (inactive) | 22.5 µM (inactive) | 23.3 µM (inactive)
COC(OC)C1OC(CO)C(n2cc(C)c(=O)[nH]c2=O)C1O (stereo not drawn) | > 100 µM (inactive) | > 100 µM (inactive) | > 100 µM (inactive) | > 100 µM (inactive) | > 100 µM (inactive) | > 100 µM (inactive) | > 100 µM (inactive) | > 100 µM (inactive) |  | > 100 µM (inactive) | > 100 µM | > 100 µM (inactive) | > 100 µM (inactive) | > 100 µM (inactive) | > 100 µM (inactive) | > 100 µM (inactive) | > 100 µM (inactive) | > 100 µM (inactive) | > 100 µM (inactive)
COP(=O)(/C=C/c1cc(C(=O)OCc2ccccc2)n(S(=O)(=O)c2ccccc2)c1)OC | > 100 µM (inactive) | > 100 µM (inactive) | > 100 µM (inactive) | > 100 µM (inactive) | > 100 µM (inactive) | > 100 µM (inactive) | > 100 µM (inactive) | > 100 µM (inactive) | > 100 µM (inactive) | > 100 µM (inactive) | > 100 µM | > 100 µM (inactive) | > 100 µM (inactive) | > 100 µM (inactive) |  | > 100 µM (inactive) | > 100 µM (inactive) | > 10 µM (inactive) | 57.1 µM (inactive)
CC(NC(=O)C(N)Cc1ccc(O)cn1)C(=O)O (stereo not drawn) | > 100 µM (inactive) | > 100 µM (inactive) | > 100 µM (inactive) | > 100 µM (inactive) | > 100 µM (inactive) | > 100 µM (inactive) | > 100 µM (inactive) | > 100 µM (inactive) | > 100 µM (inactive) | > 100 µM (inactive) | > 100 µM | > 100 µM (inactive) | > 100 µM (inactive) | > 100 µM (inactive) | > 100 µM (inactive) | > 100 µM (inactive) | > 100 µM (inactive) | > 100 µM (inactive) | 
COc1ccc(CN2C(=O)C(=O)N(C)C2=O)c2ccccc12 | > 10 µM (inactive) | > 10 µM (inactive) | > 10 µM (inactive) | > 10 µM (inactive) | > 10 µM (inactive) | > 10 µM (inactive) | > 10 µM (inactive) | > 10 µM (inactive) | > 10 µM (inactive) | > 10 µM (inactive) | > 10 µM |  | > 10 µM (inactive) | > 10 µM (inactive) |  | > 10 µM (inactive) | > 10 µM (inactive) | > 10 µM (inactive) | > 10 µM (inactive)
Cc1ccc(O)c(-c2cc(-c3cccc(Br)c3)c(C#N)c(N)n2)c1 | 18.5 µM (inactive) | 23.3 µM (inactive) | 19.6 µM (inactive) | 21.8 µM (inactive) | 29.6 µM (inactive) | 23.8 µM (inactive) | 16.3 µM (inactive) | 26.4 µM (inactive) | 30 µM (inactive) | 17.7 µM (inactive) | 12.9 µM | 34.4 µM (inactive) | 21.8 µM (inactive) | 27.6 µM (inactive) |  | 45.9 µM (inactive) | 19.3 µM (inactive) | 19.3 µM (inactive) | 
COc1ccc2c(c1)C(=O)/C(=C/c1ccccc1)C2 |  |  | 34 µM (inactive) | 20.2 µM (inactive) | > 100 µM (inactive) |  | 7.36 µM (inactive) |  | > 10 µM (inactive) | 68.9 µM (inactive) | 69 µM |  | 29 µM (inactive) |  | 59.7 µM (inactive) | 24.7 µM (inactive) | 95.1 µM (inactive) | 76.7 µM (inactive) | 46.5 µM (inactive)
Cc1occc1/C(S)=N\c1ccc(Cl)c(C(=O)OCC(F)(F)F)c1 | 22.4 µM (inactive) | 18.7 µM (inactive) | 22.1 µM (inactive) | 14.7 µM (inactive) | 22.4 µM (inactive) | 23.7 µM (inactive) | 12.2 µM (inactive) | 20.7 µM (inactive) | 24.4 µM (inactive) | 23.7 µM (inactive) | 19.6 µM | 18.7 µM (inactive) | 18.5 µM (inactive) | 23.1 µM (inactive) | 17.4 µM (inactive) | 17.8 µM (inactive) | 20.3 µM (inactive) |  | 24.1 µM (inactive)
